Reference: patent US20080069913A1, “Anti-Snoring Composition” (PERSEE MEDICA,, priority 2004, published 2008)

How the values were obtained:
[1] = flow time (rate of flow) over 10 cm on a plane tilted at 45°; assay type: physicochemical; conditions: 0.5 ml, plate tilted 45°
Protocol: (§1) Three types of tests were performed: flow measurement on a biological membrane, the test of immersion in artificial saliva and the salting-out test. The rate of flow is the time it takes a given volume of liquid to travel 10 centimetres across a plane tilted at 45°. The saliva immersion test aims to highlight the contact time of the product with the biological membrane when it is subjected to the effect of saliva. Finally, the salting-out test aims to highlight the time it takes the product to salt out a tracer when it is subject to permanent “leaching” by the saliva. These three tests are described in full in the scientific literature and are reference tests for measuring the time a solution remains at its site of action in experimental conditions approximating the physiological conditions of the pharyngeal mucosa.
The composition (bioadhesive preparation) was examined under experimental conditions to verify its bioadhesive properties and compare them to a non-bioadhesive reference substance (distilled water) and a liposome-based commercial preparation (liposome preparation). The measurements carried out included flow time on a biological membrane and immersion in artificial saliva.
The rate of flow is the time it takes for a given volume of liquid to travel 10 cm over a plane tilted at 45°. This test was performed on 3 levels: • on a 20 cm^2 stainless-steel plate, non-biological membrane; • on a 20 cm^2 stainless-steel plate covered with a cellulose membrane, biological membrane; • on a 20 cm^2 stainless-steel plate covered in a cellulose membrane impregnated with a 5% mucin solution.
For this study, 0.5 ml was deposited 0.5 cm from the top edge of the plate, the deposit being made in horizontal position. The chronometer starting line is located 5 cm from the top edge of the plate when the liquid crosses it after tilting the plate to 45°. In the same way, the chronometer stopping line is located 5 cm from the bottom edge of the plate when the liquid crosses it.

[2] = artificial saliva immersion test; assay type: physicochemical; conditions: membrane covered in mucin, submerged vertically in 2 litres of artificial saliva
Protocol: as §1
The aim of the artificial saliva immersion test is to show the contact time of the product with the biological membrane when subjected to the effect of saliva. As before, the product is deposited on the surface of a biological membrane covered in mucin. After flowing over a distance of 10 cm, the plate/biological membrane/product assembly is submerged vertically in a container with 2 litres of artificial saliva. The time the product remains on the surface of the membrane is determined using a chronometer.

- flow time, Stainless-steel support ([1]; 20 cm^2 stainless-steel plate, non-biological): <1″
- flow time, Stainless-steel + membrane + mucin ([1]; cellulose membrane impregnated with 5% mucin solution): <1″
- flow time, Stainless-steel + membrane ([1]; stainless-steel plate covered with cellulose membrane): <1″
- time the product remains on the surface of the membrane [2]: <1″
SMILES: O [Distilled water]
